{"source": "ChEMBL document CHEMBL1949624", "about": "“Synthesis of a spin-labeled anti-estrogen as a dynamic motion probe for the estrogen receptor ligand binding domain” (Bioorg Med Chem Lett, 2012)", "key": {"[1]": {"assay": "Selectivity ratio of relative binding affinity for ERbeta receptor LBD to relative binding affinity for ERalpha receptor LBD"}, "[2]": {"target": "Estrogen receptor beta (Homo sapiens) (UniProt Q92731)", "sequence (Q92731 whole entry, the tested form may be a part)": "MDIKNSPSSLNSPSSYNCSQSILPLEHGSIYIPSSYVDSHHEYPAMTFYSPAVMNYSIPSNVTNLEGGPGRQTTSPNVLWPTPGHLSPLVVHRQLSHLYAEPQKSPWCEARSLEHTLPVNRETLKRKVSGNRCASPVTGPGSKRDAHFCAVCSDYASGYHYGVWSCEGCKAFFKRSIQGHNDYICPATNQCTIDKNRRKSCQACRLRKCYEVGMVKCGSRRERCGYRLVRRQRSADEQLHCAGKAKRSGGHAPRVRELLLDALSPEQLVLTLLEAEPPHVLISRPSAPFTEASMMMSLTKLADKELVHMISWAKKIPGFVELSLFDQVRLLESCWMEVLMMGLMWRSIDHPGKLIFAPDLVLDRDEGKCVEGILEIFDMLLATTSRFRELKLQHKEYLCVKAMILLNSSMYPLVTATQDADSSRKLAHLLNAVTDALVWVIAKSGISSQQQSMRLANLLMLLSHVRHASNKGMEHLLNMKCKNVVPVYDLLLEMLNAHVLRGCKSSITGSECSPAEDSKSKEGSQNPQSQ", "assay": "Relative binding affinity to ERbeta LBD by competitive binding assay"}, "[3]": {"target": "T1, Estrogen receptor (Homo sapiens) (UniProt P03372)", "T1 sequence (whole entry)": "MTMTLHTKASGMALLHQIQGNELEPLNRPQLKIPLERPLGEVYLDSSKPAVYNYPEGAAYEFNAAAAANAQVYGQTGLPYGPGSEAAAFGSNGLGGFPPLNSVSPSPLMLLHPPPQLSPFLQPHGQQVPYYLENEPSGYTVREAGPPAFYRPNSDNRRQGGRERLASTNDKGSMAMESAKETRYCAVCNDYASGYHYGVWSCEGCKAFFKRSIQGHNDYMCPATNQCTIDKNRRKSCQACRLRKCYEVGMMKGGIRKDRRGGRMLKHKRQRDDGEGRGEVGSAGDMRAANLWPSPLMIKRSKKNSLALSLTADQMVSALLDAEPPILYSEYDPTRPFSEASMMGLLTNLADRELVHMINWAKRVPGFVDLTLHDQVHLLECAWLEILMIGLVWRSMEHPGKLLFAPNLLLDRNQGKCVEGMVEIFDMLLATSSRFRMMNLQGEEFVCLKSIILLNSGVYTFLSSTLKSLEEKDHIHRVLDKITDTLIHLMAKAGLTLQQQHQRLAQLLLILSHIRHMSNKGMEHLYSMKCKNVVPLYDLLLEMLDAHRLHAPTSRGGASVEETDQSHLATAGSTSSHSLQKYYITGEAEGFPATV", "assay": "Relative binding affinity to ERalpha LBD by competitive binding assay"}}}
{"smiles": "C[C@]12C[C@H](c3ccc(OCCN=[N+]=[N-])cc3)[C@@H]3c4ccc(O)cc4CC[C@H]3[C@@H]1CC[C@@H]2O", "values": [{"measurement": "Selectivity ratio", "setting": "[1]", "result": 0.86}, {"measurement": "RBA", "setting": "[2]", "result": 33.7, "unit": "%"}]}
{"smiles": "CC1(C)CC(NCc2cn(CCOc3ccc([C@H]4C[C@]5(C)[C@@H](O)CC[C@H]5[C@@H]5CCc6cc(O)ccc6[C@H]54)cc3)nn2)CC(C)(C)N1[O]", "values": [{"measurement": "Selectivity ratio", "setting": "[1]", "result": 0.43}, {"measurement": "RBA", "setting": "[2]", "result": 1.9, "unit": "%"}, {"measurement": "RBA", "setting": "[3]", "result": 4.5, "unit": "%"}]}
